System: acute Graft vs Host disease
Experiment: Acute graft vs host disease after bone marrow + T cell transplant in lethally irradiated mice, survival (Example 5)
Format: in vivo, mice (129, female)
Settings: 129 mice, C57BL/6 bone marrow + T cells at day 0, imipenem 100 mg/kg s.c. 3 times a week day 10-21, activated charcoal 14.4 mg/g in food day 9-22
Description: 30 mice (129, female) were lethally irradiated and transplanted with 5 million C57BL/6 T-cell depleted bone marrow cells as well as 1 million C57BL/6 splenic T cells at day 0.
The mice were then split in 3 groups. In group A, they received no further treatment. In group B, an imipenem treatment was initiated at day 10. It consisted of an administration of imipenem (100 mg/kg), 3 times a week by subcutaneous route. The imipenem treatment was stopped at day 21. In group C, the same imipenem treatment as group B was performed. In addition, group C mice received activated charcoal (14.4 mg/g) mixed with their food in a hydrogel every day from day 9 to day 22.
The clinical status of the mice was monitored every day from day 1 to day 21.

Structure (SMILES): C[C@@H](O)[C@H]1C(=O)N2C(C(=O)O)=C(SCCN=CN)C[C@H]12 [imipenem]
- Survival at day 21: 60%
